Assay results from BindingDB's records for doi:10.1021/jm00082a007 (J. Uriach & Cía., 1992).
pIC50: −log10 of the molar value.

biological target: Platelet-activating factor receptor (Oryctolagus cuniculus); test: In vitro inhibition of PAF induced aggregation of rabbit platelets.

| SMILES | pIC50 |
| --- | --- |
| CC[n+]1ccccc1CN(C(C)=O)C(=O)OCC1COC(OCCCCCCOCc2ccc(-c3ccccc3)cc2)C1 (stereo not given) | 7.82 |
| CC[n+]1ccccc1CN(C(C)=O)C(=O)OCC1COC(OCCCCCCOCCCCCc2ccccc2)C1 (stereo not given) | 7.82 |
| CCCCCCCCCCCCCCCCOC1CC(COC(=O)N(Cc2cccc[n+]2CC)C(C)=O)CO1 (stereo not given) | 8.01 |
| CC[n+]1ccccc1CN(C(C)=O)C(=O)OCC1COC(OCCCCCCOCCCc2ccccc2)C1 (stereo not given) | 7.29 |
| C=CCCCCCCOCCCCCCOC1CC(COC(=O)N(Cc2cccc[n+]2CC)C(C)=O)CO1 (stereo not given) | 7.60 |
| CC[n+]1ccccc1CN(C(C)=O)C(=O)OCC1COC(OCCCc2ccccc2)C1 (stereo not given) | 6.72 |
| CCCCCCCCCCCCCCCCCCCCOC1CC(COC(=O)N(Cc2cccc[n+]2CC)C(C)=O)CO1 (stereo not given) | 7.40 |
| CC[n+]1ccccc1CN(C(C)=O)C(=O)OCC1COC(OCCCCCCCCCCCCCCCCOC)C1 (stereo not given) | 8.68 |
| CCOC1CC(COC(=O)N(Cc2cccc[n+]2CC)C(C)=O)CO1 (stereo not given) | 5.55 |
| CC[n+]1ccccc1CN(C(C)=O)C(=O)OCC1COC(OCCC(c2ccccc2)c2ccccc2)C1 (stereo not given) | 6.59 |
